Values quoted from earlier work, collected in PMC8954523 (Pharmaceutics, 2022).
Values after ≈ are worked out from the molar mass of the structure shown.

Assays:
[1] = 298.15 K; cited from earlier work
[2] = ref 31; cited from earlier work

Row | SMILES | aqueous solubility [1] | log DCoct/w [2]
1 | CNC(=O)c1ccc(N2C(=S)N(c3ccc(C#N)c(C(F)(F)F)c3)C(=O)C2(C)C)cc1F [enzalutamide] | 3.92 µM (≈ 1.82 µg/mL) | 4.02
2 | CNC(=O)c1ccc(N2C(=S)N(c3cnc(C#N)c(C(F)(F)F)c3)C(=O)C23CCC3)cc1F [apalutamide] | 7.78 µM (≈ 3.71 µg/mL) | 3.90
